Measurements from patent US9457081B2, “Combination therapy using c-Met inhibitor and beta-catenin inhibitor” (Samsung Electronics Co., Ltd., priority 2013, dated 2016).

Assays:
Assay type in all cases: cell-based
HT-29 cells = experiment: HT-29 cell proliferation / viability (CellTiter Glo luminescence); settings: crizotinib administered alone, 0-20 nM, 72 hours
Protocol: To confirm the effect of co-administration in a colon cancer cell on which an anti-c-Met antibody has no effect when administered alone, HT-29 (ATCC, HTB-38) cells were used for assaying the effect of co-administration on cell proliferation.
In particular, 5000 cells of HT-29 cell were incubated in 96-well plate (medium: 10% FBS in RPMI 1640 (GIBCO), incubation temperature: 37° C.). 24 hours after, the incubated cells were treated with L3-1Y/IgG2 prepared in reference example or anti-c-Met antibody 1 (heavy chain: SEQ ID NO: 109; light chain: SEQ ID NO: 110) and beta-catenin inhibitor XAV-939 (Selleck chemical). In particular, 72 hours after the antibody treatment, 100 uL of CellTiter Glo solution (Promega, G7572) was added to each well and left at room temperature for 30 minutes. The number of the cells was counted through luminescence signal, and the luminescence signal was recorded using Envision 2104 Multi-label Reader (Perkin Elmer). In the experiment, L3-1Y/IgG2 was used at the amount of 0, 0.016, 0.08, 0.4, and 2 μg/ml, and XAV-939 was used at the fixed amount of 5 uM. […]
In particular, 5000 cells of HT-29 cell were incubated in 96-well plate (medium: 10% FBS in RPMI 1640 (GIBCO), incubation temperature: 37° C.). […] The number of the cells was counted through luminescence signal, and the luminescence signal was recorded using Envision 2104 Multi-label Reader (Perkin Elmer). […]

HCC1954 cells = experiment: HCC1954 cell proliferation with beta-catenin siRNA reverse transfection; settings: c-Met inhibitor treated alone (L3-1Y/IgG2 0-2 μg/ml; crizotinib 0-20 nM), 72 hours
From the text: (§1) To confirm the effect of co-administration of c-Met inhibitor (anti-c-Met antibody L3-1Y/IgG2 or crizotinib) and beta-catenin siRNA in a cancer cell on which a c-Met inhibitor has no effect when administered alone, a breast cancer cell line HCC1954 (ATCC, CRL 2338) and a kidney cancer cell line Caki-1 (ATCC) were used for assaying the effect of the co-administration.
(§2) In particular, in 96-well plate, beta-catenin siRNA (Dharmacon, SMARTpool) was subjected to reverse transfection into 5000 cells/well of HCC1954 cell or Caki-1 cell and the cells were incubated (medium: 10% FBS in RPMI 1640 (GIBCO), incubation temperature: 37° C.). […] The number of the cells was counted through luminescence signal, and the luminescence signal was recorded using Envision 2104 Multi-label Reader (Perkin Elmer).

Caki-1 cells = experiment: Caki-1 cell proliferation with beta-catenin siRNA reverse transfection; settings: c-Met inhibitor treated alone (L3-1Y/IgG2 0-2 μg/ml; crizotinib 0-20 nM), 72 hours
From the text: as §1, §2

Lovo cells = experiment: Lovo cell proliferation (CellTiter Glo luminescence); settings: Lovo (FIG. 5); crizotinib administered alone; 72 hours
Protocol: To confirm the effect of co-administration in a colon cancer cell on which a c-Met inhibitor has no effect when administered alone, Lovo (ATCC, CCL-229) cells were used for assaying the effect of co-administration on cell proliferation.
In particular, 5000 cells of Lovo cell were incubated in 96-well plate (medium: 10% FBS in RPMI 1640 (GIBCO), incubation temperature: 37° C.). 24 hours after, the incubated cells were treated with a small molecular compound inhibiting c-Met, crizotinib (Selleck chemical) and beta-catenin inhibitor XAV-939 (Selleck chemical). In particular, 72 hours after the antibody treatment, 100 uL of CellTiter Glo solution (Promega, G7572) was added to each well and left at room temperature for 30 minutes. The number of the cells was counted through luminescence signal, and the luminescence signal was recorded using Envision 2104 Multi-label Reader (Perkin Elmer). In the experiment, L3-1Y/IgG2 was used at the amount of 0, 0.016, 0.08, 0.4, and 2 μg/ml, and XAV-939 was used at the fixed amount of 5 uM.

C[C@@H](Oc1cc(-c2cnn(C3CCNCC3)c2)cnc1N)c1c(Cl)ccc(F)c1Cl [crizotinib, 3-[(1R)-1-(2,6-dichloro-3-fluorophenyl)ethoxy]-5-(1-piperidin-4-ylpyrazol-4-yl)pyridin-2-amine, reference compound]
cell proliferation inhibition effect (HT-29 cells): no cell proliferation inhibition effect is observed | cell proliferation inhibition effect (HCC1954 cells): no cell proliferation inhibition effect is observed | cell proliferation inhibition effect (Caki-1 cells): no cell proliferation inhibition effect is observed | cell proliferation inhibition effect (Lovo cells): no cell proliferation inhibition effect is observed
